Here are results for 2 compounds from ChEMBL document CHEMBL1158639, “Synthesis and in vivo evaluation of [11C]MPTQ: a potential PET tracer for alpha2A-adrenergic receptors” (Bioorg Med Chem Lett, 2010).

SMILES strings stand for the structures.

A short description of series [1]: Metabolic stability in baboon brain assessed as compound remaining at 4.43 mCi after 30 mins. Type of series: ADME, tissue-based. Particulars: papio anubis, read-out: Stability.
A short description of series [2]: Metabolic stability in baboon brain assessed as compound remaining at 4.43 mCi after 90 mins. Type of series: ADME, tissue-based. Particulars: papio anubis, read-out: Stability.
In series [3] the target is T1, Alpha-2C adrenergic receptor (Homo sapiens, UniProt P18825).
T1 sequence (P18825 whole entry): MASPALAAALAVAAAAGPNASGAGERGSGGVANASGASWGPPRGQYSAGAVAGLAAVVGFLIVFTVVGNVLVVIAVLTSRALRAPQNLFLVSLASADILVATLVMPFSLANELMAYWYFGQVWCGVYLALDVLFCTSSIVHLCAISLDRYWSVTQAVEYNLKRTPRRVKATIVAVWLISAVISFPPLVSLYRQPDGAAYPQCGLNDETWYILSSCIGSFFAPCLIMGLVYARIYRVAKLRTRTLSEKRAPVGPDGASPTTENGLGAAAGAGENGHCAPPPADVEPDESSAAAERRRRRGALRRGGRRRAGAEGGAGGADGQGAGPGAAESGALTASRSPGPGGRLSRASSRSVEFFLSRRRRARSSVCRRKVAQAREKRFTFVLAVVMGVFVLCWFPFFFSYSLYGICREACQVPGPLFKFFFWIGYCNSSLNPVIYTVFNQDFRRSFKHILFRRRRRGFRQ
Put plainly: Displacement of [3H]rauwolscine from adrenergic Alpha-2C receptor.

Series [4] deals with Sodium-dependent serotonin transporter (Homo sapiens, UniProt P31645). The experiment in a line: Displacement of [3H]paroxetine from 5HTT receptor.
Chain of Sodium-dependent serotonin transporter (P31645 whole entry): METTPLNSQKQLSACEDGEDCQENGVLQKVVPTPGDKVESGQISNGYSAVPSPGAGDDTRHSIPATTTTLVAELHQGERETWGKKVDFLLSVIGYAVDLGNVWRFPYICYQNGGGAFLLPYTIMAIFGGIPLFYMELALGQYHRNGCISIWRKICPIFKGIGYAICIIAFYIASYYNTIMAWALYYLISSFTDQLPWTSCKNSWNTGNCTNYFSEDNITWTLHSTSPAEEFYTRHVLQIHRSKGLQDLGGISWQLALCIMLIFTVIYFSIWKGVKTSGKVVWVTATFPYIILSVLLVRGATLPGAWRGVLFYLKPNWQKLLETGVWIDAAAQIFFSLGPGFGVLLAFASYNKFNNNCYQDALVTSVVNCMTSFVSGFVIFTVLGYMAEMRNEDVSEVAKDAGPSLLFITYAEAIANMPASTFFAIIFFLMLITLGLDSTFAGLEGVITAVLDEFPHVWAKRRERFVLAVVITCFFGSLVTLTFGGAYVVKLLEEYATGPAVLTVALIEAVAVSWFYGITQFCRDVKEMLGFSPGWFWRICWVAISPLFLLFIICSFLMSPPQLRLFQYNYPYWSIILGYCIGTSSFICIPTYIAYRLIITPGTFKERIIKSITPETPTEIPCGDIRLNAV

Turning to `[11CH3]N1CC2C(=NO[C@H]2CN2CCN(C/C=C/c3ccccc3)CC2)c2ccccc21` (some centres undefined), the remaining at 0.5 h in series [1] stood at 35%. For the same compound, the remaining at 1.5 h in series [2] worked out at 21%.

With `CN1CC2C(=NO[C@H]2CN2CCN(C/C=C/c3ccccc3)CC2)c2ccccc21` (some centres undefined), the inhibition constant (Ki) stood at 4.5 nM in series [3] and 16 nM in series [4].
